Consider one molecule from patent publication US10966978B2, “Dose and regimen for HDM2-p53 interaction inhibitors” (Novartis AG, priority 2016, dated 2021).

One data set has as its system platelets. As to the kind of experiment: PK/PD model of thrombocytopenia (modeled platelet kinetic profiles). On the set-up: species or system human. As to conditions: regimen 1B (150 mg). An excerpt: Based on individual PK and platelet counts data overtime a PK/PD model was established.
PK model: 1 compartment with biphasic absorption.
PD model: Adjusted Friberg model for thrombocytopenia including PLT transfusions and effect on HDM201 on proliferative cells and regulations.
The platelet kinetic profiles shown in FIG. 5 are modeled based on the following doses as tested in each regimen (in order from top to bottom in FIG. 5): […]

In data set [1] the test system is human SJSA-1 (osteosarcoma) xenograft. As to the kind of experiment: PK/PD tumor growth modelling, human SJSA-1 xenograft rat model. Conditions: predicted preclinical target. It counts as in vivo. The method, then: Calculation of average dose level (mg/day):
To further support the preferred dose for HDM201, compartmental PK modeling was used to estimate the individual average concentration per cycle for the 9 patients treated at 120 mg on regimen 1B (FIG. 2). For the majority of patients (7 out of 9), the estimated average drug concentrations per cycle were near or above the most conservative average tumor stasis concentration of ≈41 ng/mL per cycle determined from PKPD modeling of preclinical data (human SJSA-1 xenograft rat model).

The nature of data set [2]: Compartmental PK modeling of average concentration during cycle 1, patients with hematological tumors. It counts as in vivo, human. As to conditions: all patients with measured PK, four regimens. The method, then:
Pharmacokinetic data have been evaluated throughout the course of the clinical study. […] Furthermore, an integrated analysis of all available HDM201 concentrations was conducted using a population approach. The PK of HDM201 was best described by a 1-compartment PK model with a delayed zero- and first-order absorption process, and a linear clearance. Body weight was identified as a statistically significant covariate on apparent central volume of distribution (Vc/F), in which Vc/F increased with increasing body weight.
Compartmental PK modeling was used to estimate the individual average concentration during cycle 1 for patients with hematological tumors treated following the four different (FIG. 7). For all patients with measured PK, the estimated average drug concentrations during cycle 1 were above the most conservative average tumor stasis concentration of about 41 ng/mL per cycle determined from PKPD modeling of preclinical data (human SJSA-1 xenograft rat model).

A further data set relates to SJSA-1 cell line. As to the kind of experiment: Cellular activity in SJSA-1 cell line. It counts as cell-based. Conditions: Homo sapiens.

SMILES strings stand for the structures. In brackets after ≈: the same amount, converted by molar mass.

As usually defined, the IC50 is the concentration that inhibits the measured activity by half. Read a high IC50 as weaker potency. In the case of `COc1ncc(-c2nc3c(n2C(C)C)[C@H](c2ccc(Cl)cc2)N(c2cc(Cl)cn(C)c2=O)C3=O)c(OC)n1` [HDM201, (S)-5-(5-Chloro-1-methyl-2-oxo-1,2-dihydro-pyridin-3-yl)-6-(4-chloro-phenyl)-2-(2,4-dimethoxy-pyrimidin-5-yl)-1-isopropyl-5,6-dihydro-1H-pyrrolo[3,4-d]imidazol-4-one], in the data set on platelets, the “platelet kinetic profile, modeled, compared among regimens with single agent activity” value is given as “best overall platelet kinetic profile”. The “average concentration (target efficacious level) for 95% tumor regression” value in data set [1] is reported as 120 ng/mL. For the same molecule, in data set [2], the “estimated average concentration during cycle 1 relative to tumor stasis concentration (about 41 ng/mL)” value is recorded as “above”. Also, it took 0.0294 µg/mL (≈ 0.0529 µM) to reach half-maximal inhibition in the data set on SJSA-1 cell line (IC50).
